Reference: patent US10717704B2, “Inhibitors of creatine transport and uses thereof” (Rgenix, Inc., priority 2014, dated 2020)
Each block holds one compound with its values, some of them ahead of it.

Experiments:
creatine transporter = molecular target: T1, creatine transporter (Mus musculus, UniProt Q8VBW1); assay: In vivo creatine transporter inhibition assay (creatine-d3 transport in heart tissue); parameters: species or system C57Bl6 male mice; conditions: i.p. 250 mg/kg β-GPA equivalent (1.91 mmol/kg), creatine-d3 1 mg/kg i.p. 7 minutes after drug, hearts after one hour, relative to vehicle control, mean of three hearts
T1 construct: from tissue; host or cells: heart of C57Bl6 male mice (in vivo dosing)
T1 sequence (Q8VBW1 1-635): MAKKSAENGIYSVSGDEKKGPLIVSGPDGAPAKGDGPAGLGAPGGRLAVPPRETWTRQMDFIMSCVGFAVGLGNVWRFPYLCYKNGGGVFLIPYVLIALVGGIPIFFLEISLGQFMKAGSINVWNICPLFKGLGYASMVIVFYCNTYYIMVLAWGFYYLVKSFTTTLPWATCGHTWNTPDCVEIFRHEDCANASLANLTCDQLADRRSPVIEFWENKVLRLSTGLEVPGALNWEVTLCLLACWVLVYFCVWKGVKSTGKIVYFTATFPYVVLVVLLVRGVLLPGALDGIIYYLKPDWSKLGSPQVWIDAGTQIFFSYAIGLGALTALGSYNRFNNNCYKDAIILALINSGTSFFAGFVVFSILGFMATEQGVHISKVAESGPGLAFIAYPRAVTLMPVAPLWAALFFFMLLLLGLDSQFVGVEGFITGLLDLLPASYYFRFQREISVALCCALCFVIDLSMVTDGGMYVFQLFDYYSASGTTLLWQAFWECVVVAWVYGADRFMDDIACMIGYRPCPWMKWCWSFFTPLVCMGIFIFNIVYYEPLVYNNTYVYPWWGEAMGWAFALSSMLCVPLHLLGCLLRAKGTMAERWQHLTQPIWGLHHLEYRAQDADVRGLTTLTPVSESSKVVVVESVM
Description: Soluble compounds were formulated in saline solution (0.9% NaCl). […] Studies were performed on 6-7 week old C57Bl6 male mice, receiving a regular diet (Purina 5001, Research Diet) and on a regular sleep rhythm (12 h night/day schedule). Experiments were performed ˜6 h after exposing to daylight. Mice were weighed and randomly divided into groups of 3 mice per group and injected i.p. with 100-200 μL of dosing solution to deliver 250 mg/kg (50 mg/mL or 381 mM) β-GPA equivalent (i.e. 1.91 mmol/kg) along with a vehicle control. […] Volumes were adjusted based on the weight of the mice to reach a final dose of 1 mg/kg. After one hour, mice were euthanized, hearts were perfused with PBS, removed, snap-frozen in liquid nitrogen, and stored at −80° C. until further processing. Mouse hearts were thawed and weighed into 1.5 mL Eppendorf conical tubes. Typical heart weights range from […]. […] The samples were then placed in a MiniBeadBeater (BioSpec Products, Inc.) for 2 minutes to disrupt the tissue and homogenize the sample. Aliqouts (20 μL) of the homogenized hearts were transferred to a 96-well microtiter plate. […] Supernatant (900 μL) was transferred to 96-well deep well plate for analysis. Calibration standards, blanks, and quality control samples are prepared from control mouse hearts homogenized as noted above. Aliquots of homogenate were then spiked with known quantities of creatine-d3 (CDN Isotopes, Pointe-Claire, Quebec) or solvent, and processed along with the samples as noted above. Analysis was conducted by LC-MS/MS using an Acquity UPLC (Waters Corp., Milford, Mass.)/Triple Quad 5500 (AB Sciex, Framingham, Mass.) system. […] A binary gradient of acetonitrile and 10 mM ammonium acetate was used to elute analytes from the column. The mass spectrometer was operated in positive ion electrospray in Multiple Reaction Monitoring mode for the following mass transitions: Data were collected and processed using Analyst 1.6.2 (AB Sciex, Framingham, Mass.). […] Data was report as μg of creatine-d3 per gram of heart. Mean values and standard deviations were calculated from three heart samples and percent creatine-d3 transport inhibition was reported relative to vehicle control.

[1] = system: LvM3b cells with CKB knockdown; assay: Liver metastasis of CKB knockdown LvM3b cells pre-treated with metabolite; format: in vivo, mice
Description: (§1) 5×10^5 highly metastatic cancer cells were injected into the portal circulation of immunodeficient mice. One day after inoculation of cancer cells, mice were injected indicated amounts of drug in 300 μL PBS. Treatment was continued daily and metastatic progression was monitored by bioluminescent imaging until the mice were euthanized at which point livers were excised for bioluminescent imaging and gross histology. Where indicated, cancer cells were pre-treated with indicated amounts of compound for 48 hrs before injection into immunodeficient mice.
CKB is known to regulate the reservoir of rapidly mobilized high-energy phosphates in tissues such as the brain and kidneys by catalyzing the transfer of a high-energy phosphate group from phosphocreatine to ADP, yielding ATP and creatine. It was hypothesized that CKB generation of ATP from phosphocreatine might provide colon cancer cells with an energetic advantage during hepatic colonization. […] Metastatic burden was monitored by bioluminescent imaging and mice euthanized 21 days after injection.
Similar studies were done to determine whether creatine and phosphocreatine could rescue the phenotype of seen upon CKB knock-down. […] Liver metastasis was monitored by bioluminescent imaging and mice were euthanized as described above.

LvM3b cells = assay: Liver metastasis assay, LvM3b colon cancer cells, drug treatment of mice; format: in vivo, NOD-SCID mice; conditions: for metastatic colonization (bioluminescent measurements of liver metastasis): 5×10^5 LvM3b cells, treated daily for two weeks, intra-peritoneal
Description: One day after inoculation of cancer cells, mice were injected indicated amounts of drug in 300 μL PBS. Treatment was continued daily and metastatic progression was monitored by bioluminescent imaging until the mice were euthanized at which point livers were excised for bioluminescent imaging and gross histology. Where indicated, cancer cells were pre-treated with indicated amounts of compound for 48 hrs before injection into immunodeficient mice. […] The treatment regime started one day after inoculation of tumor cells and continued until the mice were euthanized. […] Treatment regime were as that for cyclocreatine treatment. Finally, assays were carried out to determine the impact of small-molecule inhibition of CKB and restriction of creatine availability on colon cancer metastasis. Cyclocreatine, which resembles phosphocreatine, is a transition-state analog for creatine kinases. […] The mice were then euthanized and livers excised for ex vivo imaging at the end of the treatment. […] Similar assays were carried out using a creatine transporter inhibitor beta-guanidinopropionic acid (β-GPA). […] In this example, assays were carried out to confirm the therapeutic potential of targeting the creatine transporter channel SLC6a8 by administering the small molecule β-GPA, which is an inhibitor of SLC6a8. […] To confirm this therapeutic effect, mice injected with LvM3b colon cancer cells we treated with either β-GPA or control vehicle (PBS) via intra-peritoneal injection daily for three weeks (FIG. 2). The mice were euthanized at three weeks and liver extracted for bioluminescent imaging and gross histology.

CKB = CKB (Homo sapiens, UniProt P12277); conditions: read-out: ki (inhibitor of CKB); cited from earlier work
Chain of CKB (P12277 whole entry): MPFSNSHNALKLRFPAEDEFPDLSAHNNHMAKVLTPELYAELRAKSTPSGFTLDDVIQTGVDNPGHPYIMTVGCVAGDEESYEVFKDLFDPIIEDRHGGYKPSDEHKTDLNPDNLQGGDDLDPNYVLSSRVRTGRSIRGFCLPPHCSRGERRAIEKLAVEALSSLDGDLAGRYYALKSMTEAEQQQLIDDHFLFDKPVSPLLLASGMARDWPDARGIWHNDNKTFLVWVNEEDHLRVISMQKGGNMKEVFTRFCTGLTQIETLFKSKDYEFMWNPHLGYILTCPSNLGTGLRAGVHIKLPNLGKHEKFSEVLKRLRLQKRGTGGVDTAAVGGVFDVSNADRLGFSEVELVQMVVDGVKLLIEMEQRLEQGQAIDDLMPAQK

[2] = system: PANC1 pancreatic cancer cells; assay: Survival of disseminated PANC1 cells in vivo after β-GPA pre-treatment; parameters: species or system immunodeficient mice
Description: as §1, with “One” for “5×10^5 highly metastatic cancer cells were injected into the portal circulation of immunodeficient mice. One”

Compound: CN(CC(=O)O)C(=N)N [creatine]
- rescue of metastasis suppression upon CKB knockdown ([1]; LvM3b cells with CKB knockdown pre-treated with 10 uM, day 21): rescued metastasis suppression

Compound: N=C(N)N1CCC(C(=O)O)C1 (centres unmarked) [Compound 376, 1-carbamimidoylpyrrolidine-3-carboxylic acid]
- % Inhibition of Creatine-d3 Transport (creatine transporter): 39.1%

Compound: NC1=NCCN1CC(=O)O [cyclocreatine]
- metastatic colonization (bioluminescent measurements of liver metastasis) (LvM3b cells): significantly reduced metastatic colonization
- Ki (CKB): 5 mM

Compound: Nc1ncnc2c1ncn2[C@@H]1O[C@H](COP(=O)(O)OP(=O)(O)OP(=O)(O)O)[C@@H](O)[C@H]1O [ATP]
- enhancement of suppressed metastasis phenotype in cells depleted of CKB ([1]; LvM3b with CKB knockdown pre-treated with 100 uM ATP, 21 days): more than 10 folds

Compound: N=C(N)NCCC(=O)O [β-GPA, beta-guanidinopropionic acid]
- metastatic colonization (bioluminescent measurements of liver metastasis) (LvM3b cells): significantly reduced metastatic colonization
- colon cancer metastasis to the liver (LvM3b cells; LvM3b cells, daily treatment for three weeks, bioluminescent imaging and gross anatomical examination): significant reduction in colon cancer metastasis to the liver
- average photon flux ratio (bioluminescence imaging) (LvM3b cells; LvM3b cells, β-GPA intra-peritoneal daily for three weeks, control group about 800): ~100
- average photon flux ratio (bioluminescence imaging) ([2]; 5×10^5 PANC1 cells pre-treated 48 hours with 10 mM, day 1 signal normalized to day zero, control group about 2.7): ~1.6
- tumor burden of pancreatic cancer cells in vivo ([2]; PANC1 cells pre-treated 48 hours with 10 mM, one day after injection): significant reduction in the tumor burden

Next, values leading:

- % Inhibition of Creatine-d3 Transport (creatine transporter): 1.4%
Compound: C[C@@H](CC(=O)O)NC(=N)N [Compound 220, (3S)-3-carbamimidamidobutanoic acid]

- % Inhibition of Creatine-d3 Transport (creatine transporter): 4.5%
Compound: N=C(N)NC[C@H](N)C(=O)O [Compound 125, (2S)-2-amino-3-carbamimidamidopropanoic acid]

- % Inhibition of Creatine-d3 Transport (creatine transporter): 24.7%
Compound: N=C(N)NC(CC(=O)O)C(F)(F)F (centres unmarked) [Compound 261, 3-guanidino-4,4,4-trifluorobutanoic acid]

- % Inhibition of Creatine-d3 Transport (creatine transporter): 79.0%
Compound: C[C@H](CC(=O)O)NC(=N)N [Compound 219, (3R)-3-carbamimidamidobutanoic acid]

- % Inhibition of Creatine-d3 Transport (creatine transporter): 71.8%
Compound: N=C(N)N1CC(C(=O)O)C1 [Compound 258, 1-carbamimidoylazetidine-3-carboxylic acid]

- inhibition at 250 mg/kg (creatine transporter; mouse, ip): 73.4%
Compound: N=C(N)NCCC(=O)O [28 (β-GPA)]

- % Inhibition of Creatine-d3 Transport (creatine transporter): 11.1%
Compound: CCC(CC(=O)O)NC(=N)N (centres unmarked) [Compound 358, 3-carbamimidamidopentanoic acid]
